Test results published in article PMC4769088, “Antifungal Activity and Action Mechanism of Histatin 5-Halocidin Hybrid Peptides against Candida ssp” (PLoS ONE, 2016).
Like-named read-outs stand apart in the source and are kept apart here. Where a SMILES comes first, the peptide text is derived from it. Bridges are numbered along the chain shown (N, C = ends). Roman numbers before positions name the chains, in order. Where no end group is shown, it is not given here.

Tests used:
[1] = test system: C.albicans CCARM 14020; type: cell-based, Candida albicans; settings: CCARM 14020, 24 h
Method: (§1) To determine the candidacidal activity of the peptides, we used Candida strains obtained from the Culture collection of antimicrobial resistant microbes at Seoul Women’s University in Korea. These included three Candida albicans (CCARM 14020, 14021, 14022), Candida guillermondi and Candida tropicalis. In addition, Candida albicans SC5413 was kindly provided by Dr Jeong-Yoon Kim at the Department of Microbiology & Molecular Biology, Chungnam University, Korea. Yeast were cultured overnight at 30°C in 10 ml of yeast extract-peptone-dextrose (YPD) broth (Qbiogene), then diluted in 10 ml of YPD broth to OD600 = 0.2 and grown for an additional 4 h with shaking at 30°C until OD600 = 0.8 in order to obtain mid-log phase cultures. The peptides (Hst 5, P113, HHP1, HHP2, PH1, PH2, di-PH1, di-PH2, WP1, di-WP2, di-15Hc and di-18Hc) in this study were synthesized by using standard solid-phase synthesis protocols and were purified by reversed-phase high-performance liquid chromatography at Anygen Inc. (Korea). FITC-labeled peptides (F-Hst5, F-P113, F-HHP1, F-di-PH2, F-di-WP2 and F-di-18Hc) were also synthesized by 6-aminohexnoic acid linker at Anygen (Korea) for confocal experiments.
(§2) The candidacidal activities of the peptides were tested by using standard microdilution plate assays, radial diffusion assays and broth dilution assay slightly modified from the procedure recommended by the National Committee for Clinical Laboratory Standards. For the candidacidal assays, C. albicans cells were grown in YPD medium and washed twice with 10 mM sodium phosphate buffer (NaPB; Na2HPO4, NaH2PO4, pH 7.4). The cells (1 x 10^6) were then mixed with different concentrations of peptides and incubated at 30°C with constant shaking for 60 min. For energy depletion experiments, cells were pre-incubated with 10 mM NaPB containing 5 mM NaN3 at 30°C for 60 min before the addition of peptides. The cell suspensions were diluted in 10 mM NaPB and aliquots of 500 cells were spread onto YPD agar plates then incubated for 24 h at 30°C to visualize the surviving colonies. Cell survival was expressed as a percentage of that for the control, and the loss of viability was calculated as [1 x (number of colonies from peptide-treated cells/number of colonies from control cells)] x 100. Candidacidal assays were performed in triplicate. For the radial diffusion assay, C. albicans cells were grown in YPD medium overnight and washed twice with 10 mM NaPB. Washed yeast-phase C. albicans cells (1 x 10^6 CFU) were trapped in thin underlay gels containing 9 mM sodium phosphate, 1 mM sodium citrate buffer, 1% (wt/vol) agarose (A6013; Sigma), and 0.3 mg of Sabouraud dextrose broth (Difco)/ml. After incubation at 37°C for 3 h, a 10 ml overlay gel of 1% agarose and 6% Sabouraud dextrose broth was poured on the underlay gel and then the plates were incubated overnight at 37°C. The clear-zone diameters were measured to the nearest 0.1 mm and graphed against the peptide concentration. Zone diameters were expressed in units (0.1 mm = 1 unit). For the broth dilution assay, the Candida strains were cultured in LYM broth for 18 h at 30°C. The numbers of yeasts were counted using a hemocytometer. Stock peptide solutions were prepared to a concentration of 320 μg/ml in distilled water, and were then serially diluted twofold, to 5 μg/ml. 100 μl aliquots of the diluted culture media containing candida cells (1 x 10^3) were dispensed into the wells of 96-well polypropylene microtiter plates (Costar 3879, Corning, NY), to which peptide solution (11 μl) was then added. In the experiments conducted to assess the candidacidal activity of peptides in the presence of salt, we used LYM supplemented with 150 mM NaCl for the culture medium, which was mixed with the peptide solution. The antifungal activities were evaluated after 24 h of incubation at 30°C by the observation of visible turbidity the wells. […]

[2] = test system: C.albicans CCARM 14021; type: cell-based, Candida albicans
Method: as §1, §2

[3] = test system: C.albicans CCARM 14022; type: cell-based, Candida albicans
Method: as §1, §2

[4] = test system: C.albicans SC5413; type: cell-based, Candida albicans; settings: SC5413, 24 h
Method: as §1, §2

[5] = test system: C. guilliermondi CCARM 14018; type: cell-based; settings: CCARM 14018, 24 h
Method: as §1, §2

[6] = test system: all tested Candida strains; type: cell-based; settings: 4 h
Method: as §1, §2

[7] = broth dilution, LYM broth, 24 h at 30°C, interval a–b

| Compound | MICs [1] [µg/mL] | MICs ([2]; CCARM 14021, 24 h) [µg/mL] | MICs ([3]; CCARM 14022, 24 h) [µg/mL] | MICs [4] [µg/mL] | MICs [2, 7] | MICs [3, 7] | MICs [5] [µg/mL] | MIC values [6] [µg/mL] |
| --- | --- | --- | --- | --- | --- | --- | --- | --- |
| CC(C)C[C@H](NC(=O)CNC(=O)[C@H](Cc1c[nH]cn1)NC(=O)[C@H](Cc1c[nH]cn1)NC(=O)[C@H](CCCNC(=N)N)NC(=O)[C@H](CCCCN)NC(=O)[C@H](C)N)C(=O)N[C@@H](CC(N)=O)C(=O)N[C@@H](CSSC[C@H](NC(=O)[C@H](CC(N)=O)NC(=O)[C@H](CC(C)C)NC(=O)CNC(=O)[C@H](Cc1c[nH]cn1)NC(=O)[C@H](Cc1c[nH]cn1)NC(=O)[C@H](CCCNC(=N)N)NC(=O)[C@H](CCCCN)NC(=O)[C@H](C)N)C(=O)N[C@@H](C)C(=O)N[C@@H](CCCCN)C(=O)NCC(=O)N[C@H](C(=O)N[C@@H](CC(C)C)C(=O)N[C@@H](C)C(N)=O)C(C)C)C(=O)N[C@@H](C)C(=O)N[C@@H](CCCCN)C(=O)NCC(=O)N[C@H](C(=O)N[C@@H](CC(C)C)C(=O)N[C@@H](C)C(N)=O)C(C)C [di-PH1] (I: H-AKRHHGLNCAKGVLA-NH2 / II: H-AKRHHGLNCAKGVLA-NH2; disulfide I:9-II:9 (inferred); N-terminus assumed) | 16 to 32 | 4 to 8 | 4 to 8 | 16 to 32 |  |  |  |  |
| AKRHHGLNCAKFH-NH2 [PH2] | 1 to 2 | 1 to 2 | 8 to 16 | 1 to 2 |  |  |  |  |
| AKRHHGLNCAKGVLA-NH2 [PH1] | 16 to 32 | 8 to 16 | 8 to 16 | 16 to 32 |  |  |  |  |
| ALLHHGYKRKFH-NH2 [HHP2] | 8 to 16 |  |  | 16 to 32 | 32< μg/ml | 32< μg/ml |  |  |
| WLNAKRHHGYKRKFH-NH2 [WP1] | 4 to 8 | 8 to 16 |  | 4 to 8 |  | 32< μg/ml |  |  |
| WLNALLHHGYKRKFH-NH2 [HHP1] | 2 to 4 | 2 to 4 | 4 to 8 | 2 to 4 |  |  | 1 to 2 | 2 to 4 |
